Test results from US20250313574A1, “SIALIC ACID DERIVATIVES AND METHODS OF USING SAME” (EISAI R&D MANAGEMENT CO., LTD., priority 2022, published 2025).

Key:
[1] = target: Recombinant human CD33 protein (Homo sapiens (Human), UniProt P20138); experiment: CD33 competitive binding assay for HTS drug screen (fluorescent multivalent sialic acid probe)
In short: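 Inhibition was read as reduced retention of a fluorescent multivalent sialic acid complex (final 5 μM neutravidin, 15 μM A-375, 5 μM biotin-4-FITC) on plate-immobilized human CD33. Compound was added first, the probe followed for 30 min at room temperature in PBS with 0.2% Tween-20 and 0.5% BSA, and FITC was measured after a wash.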

[2] = target: Recombinant Human Siglec-3/CD33 protein (His-CD33) (Homo sapiens (Human), UniProt P20138); experiment: Differential scanning fluorimetry (DSF) thermal shift assay; format: binding
[3] = thermal melt shift of 0.5 μM CD33 protein with 50 μM compound
[4] = difference in thermal melt of CD33 protein (0.5 μM) with 50 μM compound

Recombinant human CD33 protein, sequence (P20138 18-259): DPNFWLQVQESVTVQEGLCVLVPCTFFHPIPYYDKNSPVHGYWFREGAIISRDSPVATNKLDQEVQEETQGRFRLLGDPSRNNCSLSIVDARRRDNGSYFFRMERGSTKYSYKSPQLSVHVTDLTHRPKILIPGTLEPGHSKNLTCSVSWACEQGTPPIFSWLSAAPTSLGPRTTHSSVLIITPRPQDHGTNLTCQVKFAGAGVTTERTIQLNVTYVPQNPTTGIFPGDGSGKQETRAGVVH
Recombinant Human Siglec-3/CD33 protein (His-CD33), sequence (P20138 18-259): as above

Compound	EC50 [1] [nM]	DSF (dTmD) [2, 3]	DSF (dTmD) [2, 4] [°C]
CC(=O)N[C@H]1[C@H]([C@H](O)[C@H](O)CNC(=O)c2cc(C)c(O)c(C)c2)O[C@@](CCN2CCOC[C@@]23CCN(C(=O)N[C@@H](C)c2ccccc2)C3)(C(=O)O)C[C@@H]1O [A-043]	13	13.2	
CC(=O)N[C@H]1[C@H]([C@H](O)[C@H](O)CNC(=O)c2cc(C)c(O)c(C)c2)O[C@@](CC2OC(C)(C)O[C@H]2c2cccc(C(=O)NCc3ccccc3)c2)(C(=O)O)C[C@@H]1O (some centres unmarked) [A-311]	6360		0.5
CC(=O)N[C@H]1[C@H]([C@H](O)[C@H](O)CNC(=O)c2cc(C)c(O)c(C)c2)O[C@@](CCN2C[C@H](C)OC[C@@]23CCN(C(=O)OC(C)(C)C)C3)(C(=O)O)C[C@@H]1O [A-005]	7	14.1	
CC(=O)N[C@H]1[C@H]([C@H](O)[C@H](O)CNC(=O)c2cccc(N(C)C)c2)O[C@@](CCN2CCOC[C@@]23CCN(C(=O)OC(C)(C)C)C3)(C(=O)O)C[C@@H]1O [A-183]	173	10.3	
CC(=O)N[C@H]1[C@H]2O[C@](C(=O)O)(C/C=C/CCC[C@@H](NC(=O)[C@H]3CCCOC3)c3cccc(c3)COc3c(C)cc(cc3C)C(=O)NC[C@@H](O)[C@H]2O)C[C@@H]1O [A-355]	35400		1.3
CC(=O)N[C@H]1[C@H]([C@H](O)[C@H](O)CNC(=O)c2cc(C)c(O)c(C)c2)O[C@@](CC2OC(C)(C)O[C@H]2c2ccc(F)c(N3CCCC3=O)c2)(C(=O)O)C[C@@H]1O (some centres unmarked) [A-317]	920		6.5
CC(=O)N[C@H]1[C@H]([C@H](O)[C@H](O)CNC(=O)c2ccc3[nH]nc(C)c3c2)O[C@@](CCN2CCOC[C@@]23CCN(C(=O)OC(C)(C)C)C3)(C(=O)O)C[C@@H]1O [A-125]	23	13.3	
CC(=O)N[C@H]1[C@H]([C@H](O)[C@H](O)CNC(=O)c2cc(C)c(O)c(C)c2)O[C@@](C[C@@H]2COCC3(CCN(C(=O)OC(C)(C)C)CC3)N2)(C(=O)O)C[C@@H]1O [A-230]	10600		1.1
CC(=O)N[C@H]1[C@H]([C@H](O)[C@H](O)CNC(=O)c2cc(C)c(O)c(C)c2)O[C@@](C/C=C/c2cccc(CNC(=O)c3ccc(Nc4ncccn4)cc3)c2)(C(=O)O)C[C@@H]1O [A-240]	227		6.2
CC(=O)N[C@H]1[C@H]2O[C@](C(=O)O)(C/C=C/c3cccc(c3)[C@@H](NC(=O)[C@H]3CCCOC3)CCCCOc3c(C)cc(cc3C)C(=O)NC[C@@H](O)[C@H]2O)C[C@@H]1O [A-348]	10100		3.6
CC(=O)N[C@H]1[C@H]([C@H](O)[C@H](O)CNC(=O)c2cc(C)c(O)c(C)c2)O[C@@](C/C=C/c2cccc(-c3cc(N)on3)c2)(C(=O)O)C[C@@H]1O [A-291]	4300		2.9
CC(=O)N[C@H]1[C@H]([C@H](O)[C@H](O)CNC(=O)c2cc(C)c(O)c(C)c2)O[C@@](CCN2CCCC[C@@]23CN(C(=O)OC(C)(C)C)C[C@H]3CO)(C(=O)O)C[C@@H]1O [A-029]	9730	2.1	
CC(=O)N[C@H]1[C@H]2O[C@](C(=O)O)(C/C=C/COC[C@@H](NC(=O)OC(C)(C)C)COCCCOc3c(C)cc(cc3C)C(=O)NC[C@@H](O)[C@H]2O)C[C@@H]1O [A-343]	6540		4.6
CC(=O)N[C@H]1[C@H]([C@H](O)[C@H](O)CNC(=O)c2ccc(C(F)(F)F)c(O)c2)O[C@@](CCN2CCOC[C@@]23CCN(C(=O)OC(C)(C)C)C3)(C(=O)O)C[C@@H]1O [A-146]	262	10.6	
CC(=O)N[C@H]1[C@H]([C@H](O)[C@H](O)CNC(=O)c2cc(C)c(N)c(C)c2)O[C@@](CCN2CCOC[C@@]23CCN(C(=O)OC(C)(C)C)C3)(C(=O)O)C[C@@H]1O [A-119]	17	14.0	
CC(=O)N[C@H]1[C@H]([C@H](O)[C@H](O)CNC(=O)c2cc(C)c(O)c(C)c2)O[C@@](CCN2CCOC[C@@]23CCN(C(=S)NC2CCCCC2)C3)(C(=O)O)C[C@@H]1O [A-052]	66	9.9	
CC(=O)N[C@H]1[C@H]([C@H](O)[C@H](O)CNC(=O)c2cc(C)c(O)c(C)c2)O[C@@](CCN2CCOC[C@@]23CCN(C(=O)C2CC2)C3)(C(=O)O)C[C@@H]1O [A-096]	454	7.6	

Compound	EC50 [1] [nM]	DSF (dTmD) [2, 3]	DSF (dTmD) [2, 4] [°C]
CC(=O)N[C@H]1[C@H]2O[C@](C(=O)O)(C/C=C/COC[C@@H](NC(=O)[C@H]3CCCOC3)COCCCOc3c(C)cc(cc3C)C(=O)NC[C@@H](O)[C@H]2O)C[C@@H]1O [A-337]	14100		2.2
COc1cc(C(=O)NC[C@@H](O)[C@@H](O)[C@@H]2O[C@@](CCN3CCOC[C@@]34CCN(C(=O)OC(C)(C)C)C4)(C(=O)O)C[C@H](O)[C@H]2NC(C)=O)cc(OC)c1OC [A-148]	197	9.9	
Cc1cc2cc(C)c1OCCO[C@@H]1C[C@H](OC/C=C/CC[C@]3(C(=O)O)C[C@H](O)[C@@H](NC(=O)Cn4cc(C5CCCCC5)nn4)[C@@H](O3)[C@H](O)[C@H](O)CNC2=O)N(C(=O)C2CCCOC2)C1 (some centres unmarked) [A-358]	9430		3.5
CC(=O)N[C@H]1[C@H]([C@H](O)[C@H](O)CNC(=O)c2cc(C)c(O)c(C)c2)O[C@@](C/C=C/c2cccc(CN(C)C(=O)C3CCCOC3)c2)(C(=O)O)C[C@@H]1O (some centres unmarked) [A-292]	3020		4.0
CC(=O)N[C@H]1[C@H]([C@H](O)[C@H](O)CNC(=O)c2cc(Cl)c(O)c(Cl)c2)O[C@@](CC2OC(C)(C)O[C@H]2c2cccc(C(=O)NCc3ccccc3)c2)(C(=O)O)C[C@@H]1O (some centres unmarked) [A-321]	220		7.2
CC(=O)N[C@H]1[C@H]([C@H](O)[C@H](O)CNC(=O)c2cc(C)c3[nH]ncc3c2)O[C@@](CCN2CCOC[C@@]23CCN(C(=O)OC(C)(C)C)C3)(C(=O)O)C[C@@H]1O [A-111]	16	12.5	
CC(=O)N[C@H]1[C@H]([C@H](O)[C@H](O)CNC(=O)c2cc(C)c(O)c(C)c2)O[C@@](C/C=C/c2cccc(CNC(=O)C3CCCC(Nc4ccc(C)cn4)C3)c2)(C(=O)O)C[C@@H]1O (some centres unmarked) [A-259]	5810		3.1
CC(=O)N[C@H]1[C@H]([C@H](O)[C@H](O)CNC(=O)c2ccc3c(c2)N(C)C(=O)CO3)O[C@@](CCN2CCOC[C@@]23CCN(C(=O)OC(C)(C)C)C3)(C(=O)O)C[C@@H]1O [A-150]	219	9.6	
CC(=O)N[C@H]1[C@H]2O[C@](C(=O)O)(CC/C=C/CO[C@H]3C[C@H](CN3C(=O)C3CCCOC3)OCCOc3c(C)cc(cc3C)C(=O)NC[C@@H](O)[C@H]2O)C[C@@H]1O (some centres unmarked) [A-357]	66100		1.1
CC(=O)N[C@H]1[C@H]([C@H](O)[C@H](O)CNC(=O)c2cc(C)c(O)c(C)c2)O[C@@](C[C@@H]2COC[C@]3(CCN(C(=O)OC(C)(C)C)C3)N2)(C(=O)O)C[C@@H]1O [A-229]	22		13.0
CC(=O)N[C@H]1[C@H]([C@H](O)[C@H](O)CNC(=O)c2cc(C)c(O)c(C)c2)O[C@@](CCN2CCOC[C@@]23CCN(C(=O)C2CC(C)(C)C2)C3)(C(=O)O)C[C@@H]1O [A-080]	68	10.2	
CC(=O)N[C@H]1[C@H]([C@H](O)[C@H](O)CNC(=O)c2cc(C)c(O)c(C)c2)O[C@@](CC2OC(C)(C)O[C@H]2c2cccc(NC(=O)OC(C)(C)C)c2)(C(=O)O)C[C@@H]1O (some centres unmarked) [A-296]	477		6.4
CC(=O)N[C@H]1[C@H]([C@H](O)[C@H](O)CNC(=O)c2cc(C)c(O)c(C)c2)O[C@@](CCN2CCOC[C@]23CCN(C(=O)OC(C)(C)C)C3)(C(=O)O)C[C@@H]1O [A-003]	1140	5.12	
CC(=O)N[C@H]1[C@H]([C@H](O)[C@H](O)CNC(=O)c2cc(C)c3[nH]ccc3c2)O[C@@](CCN2CCOC[C@@]23CCN(C(=O)OC(C)(C)C)C3)(C(=O)O)C[C@@H]1O [A-109]	6	16.6	
CC(=O)N[C@H]1[C@H]([C@H](O)[C@H](O)CNC(=O)c2cc(C)c(O)c(C)c2)O[C@@](C/C=C/c2cccc(CNC(=O)C3CCCOC3)c2)(C(=O)O)C[C@@H]1O (some centres unmarked) [A-293]	7940		4.2
Cc1cc(C(=O)NC[C@@H](O)[C@@H](O)[C@@H]2O[C@@](CC3OC(C)(C)O[C@H]3c3cccc(CNC(=O)OC(C)(C)C)c3)(C(=O)O)C[C@H](O)[C@H]2NC(=O)Cn2cc(C3CCCCC3)nn2)cc(C)c1O (some centres unmarked) [A-301]	5260		3.5
CC(=O)N[C@H]1[C@H]([C@H](O)[C@H](O)CNC(=O)c2cc(C)c(O)c(C)c2)O[C@@](C[C@@H]2COC[C@]3(CCN(C(=O)OC(C)(C)C)C3)N2)(C(=O)O)C[C@@H]1O [A-225]	552		6.4
